Assay results as given in patent US20240150290A1, “HETEROCYCLIC P2Y14 RECEPTOR ANTAGONISTS” (priority 2021, published 2024).
Values after ≈ are worked out from the molar mass of the structure shown. Like-named read-outs stand apart in the source and are kept apart here. Marks after values point to notes of the source that are not given here.

How the values were obtained:
[1] = HPLC-based lipophilicity (Log D7.4); conditions: for chromatographic logD: pH 7.4
[2] = Aqueous solubility, pION method
hP2Y14R = target: T1, hP2Y14R (Homo sapiens, UniProt Q15391); test: Inhibition of fluorescent antagonist binding in whole hP2Y14R-expressing CHO cells (flow cytometry)
T1 construct: expressed in transfected cells; host or cells: CHO cells
T1 sequence (Q15391 1-338): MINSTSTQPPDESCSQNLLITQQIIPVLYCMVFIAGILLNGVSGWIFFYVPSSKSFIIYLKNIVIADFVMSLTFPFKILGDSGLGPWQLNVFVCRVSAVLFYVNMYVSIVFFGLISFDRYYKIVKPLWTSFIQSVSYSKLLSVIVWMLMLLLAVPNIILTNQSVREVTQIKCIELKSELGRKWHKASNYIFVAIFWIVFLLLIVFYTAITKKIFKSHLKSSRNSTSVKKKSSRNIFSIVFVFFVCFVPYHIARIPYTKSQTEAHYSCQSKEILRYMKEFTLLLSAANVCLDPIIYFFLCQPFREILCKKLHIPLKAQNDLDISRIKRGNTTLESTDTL

[3] = Table 2, whole hP2Y14R-CHO cells, 20 nM fluorescent antagonist 3, mean+SEM, n = 3-6, read-out: IC50

| SMILES | chromatographic logD [1] | Solubility (ug/mL) pH 4 [2] | Solubility (ug/mL) pH 7.4 [2] | IC50 (hP2Y14R; [3]) | also measured |
| --- | --- | --- | --- | --- | --- |
| CN1C[C@H]2CC[C@@H](C1)[C@]2(O)c1ccc(-c2cc(C(=O)O)cc3cc(-c4ccc(C(F)(F)F)cc4)ccc23)cc1 [Compound 132, 4-(4-((1R,5S,8r)-8-Hydroxy-3-methyl-3-azabicyclo[3.2.1]octan-8-yl)phenyl)-7-(4-(trifluoromethyl)phenyl)-2-naphthoic acid] | 1.37 ± 0.02 |  |  |  | solubility ([2]; pH 4, aqueous buffer): 1.81 ± 0.05 µg/mL (≈ 3.4 µM); solubility ([2]; pH 7.4, aqueous buffer): 0.88 ± 0.09 µg/mL (≈ 1.66 µM); IC50 (hP2Y14R): 44.6 ± 1.7 nM |
| O=C(O)c1cc(-c2ccc([C@]3(O)C[C@H]4CC[C@@H]3CN4)cc2)c2ccc(-c3ccc(C(F)(F)F)cc3)cc2c1 [Compound 125a] |  | 2.66 ± 0.29 ug/mL | 2.19 ± 0.10 ug/mL |  | Log D7.4 ([1]; HPLC-based lipophilicity): 0.74 ± 0.05 |
| CC(=O)N1C[C@H]2C[C@@H]1C[C@@H]2c1ccc(-c2cc(C(=O)O)cc3cc(-c4ccc(C(F)(F)F)cc4)ccc23)cc1 (racemic) [Compound 113, rac-4-(4-((1S,4S,5S)-2-Acetyl-2-azabicyclo[2.2.1]heptan-5-yl)phenyl)-7-(4-(trifluoromethyl)phenyl)-2-naphthoic acid] | 0.921 ± 0.034 |  |  | 20.4 ± 2.4 nM | solubility ([2]; pH 4, aqueous buffer): 0.13 ± 0.04 µg/mL (≈ 0.245 µM); solubility ([2]; pH 7.4, aqueous buffer): 2.53 ± 0.43 µg/mL (≈ 4.78 µM) |
| O=C(O)c1cc(-c2ccc(C34CCNCC3C4(F)F)cc2)c2ccc(-c3ccc(C(F)(F)F)cc3)cc2c1 (stereo not shown) [Compound 109, 4-(4-(7,7-Difluoro-3-azabicyclo[4.1.0]heptan-6-yl)phenyl)-7-(4-(trifluoromethyl)phenyl)-2-naphthoic acid] | 2.71 ± 0.33 | 1.13 ± 0.34 ug/mL | 0.25 ± 0.01 ug/mL | 211 ± 36 nM |  |
| CC1CC(c2ccc(-c3cc(C(=O)O)cc4cc(-c5ccc(C(F)(F)F)cc5)ccc34)cc2)CCN1 (stereo not shown) [Compound 107, 4-(4-(2-Methylpiperidin-4-yl)phenyl)-7-(4-(trifluoromethyl)phenyl)-2-naphthoic acid] | 2.05 ± 0.11 | 0.31 ± 0.04 ug/mL | 0.16 ± 0.03 ug/mL | 17.8 ± 2 nM |  |
| O=C(O)c1cc(-c2ccc(C3CC4CCC3CN4)cc2)c2ccc(-c3ccc(C(F)(F)F)cc3)cc2c1 (racemic) [Compound 126] | 1.74 ± 0.02 | 0.80 ± 0.05 ug/mL | 0.49 ± 0.06 ug/mL |  |  |
| O=C(O)c1cc(-c2ccc(C3C4CCC3CNC4)cc2)c2ccc(-c3ccc(C(F)(F)F)cc3)cc2c1 (stereo not shown) [Compound 129, 4-(4-(3-Azabicyclo[3.2.1]octan-8-yl)phenyl)-7-(4-(trifluoromethyl)phenyl)-2-naphthoic acid] |  | 0.38 ± 0.04 ug/mL | 0.13 ± 0.00 ug/mL | 38.3 ± 2 nM | Log D7.4 ([1]; calculated from retention factor difference between ligands and 1 (k = 3.41)): 2.33 ± 0.09^f |
| O=C(O)c1cc(-c2ccc(C3C4CCC3CNC4)cc2)c2ccc(-c3ccc(C(F)(F)F)cc3)cc2c1 (stereo not shown) [Compound 133, 4-(4-(3-Azabicyclo[3.2.1]octan-8-yl)phenyl)-7-(4-(trifluoromethyl)phenyl)-2-naphthoic acid] | 2.97 ± 0.02 |  |  |  | solubility ([2]; pH 4, aqueous buffer): 0.32 ± 0.01 µg/mL (≈ 0.638 µM); solubility ([2]; pH 7.4, aqueous buffer): 0.16 ± 0.01 µg/mL (≈ 0.319 µM); IC50 (hP2Y14R): 696 ± 100 nM |
| N[C@@H]1C[C@H](C(=O)O)C[C@H]1c1ccc(-c2cc(C(=O)O)cc3cc(-c4ccc(C(F)(F)F)cc4)ccc23)cc1 [Compound 140, 4-(4-((1S,2R,4R)-2-Amino-4-carboxycyclopentyl)phenyl)-7-(4-(trifluoromethyl)phenyl)-2-naphthoic acid] |  | 0.34 ± 0.07 ug/mL | 3.92 ± 0.10 ug/mL | 165 ± 51 nM | Log D7.4 ([1]; HPLC-based lipophilicity): −0.478 ± 0.050 |
| N[C@@H]1C[C@H](CO)C[C@H]1c1ccc(-c2cc(C(=O)O)cc3cc(-c4ccc(C(F)(F)F)cc4)ccc23)cc1 [Compound 136, 4-(4-((1S,2R,4R)-2-Amino-4-(hydroxymethyl)cyclopentyl)phenyl)-7-(4-(trifluoromethyl)phenyl)-2-naphthoic acid] | 1.06 ± 0.05 | 3.74 ± 0.09 ug/mL | 0.93 ± 0.20 ug/mL | 100 ± 19 nM |  |
| O=C(O)c1cc(-c2ccc([C@@H]3CCN[C@@H]4C[C@@H]43)cc2)c2ccc(-c3ccc(C(F)(F)F)cc3)cc2c1 (racemic) [Compound 111, rac-4-(4-((1R,5R,6R)-2-Azabicyclo[4.1.0]heptan-5-yl)phenyl)-7-(4-(trifluoromethyl)phenyl)-2-naphthoic acid] | 1.75 ± 0.06 | 0.24 ± 0.02 ug/mL |  |  | solubility ([2]; pH 7.4, aqueous buffer): 0.05 ± 0.04 µg/mL (≈ 0.103 µM); IC50 (hP2Y14R): 61.8 ± 14.1 nM |
| CC1CNCCC1c1ccc(-c2cc(C(=O)O)cc3cc(-c4ccc(C(F)(F)F)cc4)ccc23)cc1 (mixture of isomers) [Compound 106, 4-(4-(3-Methylpiperidin-4-yl)phenyl)-7-(4-(trifluoromethyl)phenyl)-2-naphthoic acid] | 2.79 ± 0.09 | 1.36 ± 0.21 ug/mL | 0.03 ± 0.02 ug/mL | 20.9 ± 3.6 nM |  |
| O=C(O)c1cc(-c2ccc([C@]3(O)C[C@H]4CC[C@@H](C3)N4)cc2)c2ccc(-c3ccc(C(F)(F)F)cc3)cc2c1 [Compound 127, 4-(4-((1R,3r,5S)-3-Hydroxy-8-azabicyclo[3.2.1]octan-3-yl)phenyl)-7-(4-(trifluoromethyl)phenyl)-2-naphthoic acid] | 1.16 ± 0.08 |  |  |  |  |
| O=C(O)c1cc(-c2ccc([C@H]3C[C@@H]4CN[C@H]3C4)cc2)c2ccc(-c3ccc(C(F)(F)F)cc3)cc2c1 [Compound 117, 4-(4-((1S,4S,6R)-2-Azabicyclo[2.2.1]heptan-6-yl)phenyl)-7-(4-(trifluoromethyl)phenyl)-2-naphthoic acid] | 2.11 ± 0.06 |  |  |  | IC50 (hP2Y14R; Table 6, fluorescent hP2Y14R antagonist (3), read-out: hP2Y14R, IC50): 25.9 ± 7.6 nM |
| O=C(O)c1cc(-c2ccc(C3(O)C4CCC3CN(Cc3ccccc3)C4)cc2)c2ccc(-c3ccc(C(F)(F)F)cc3)cc2c1 (mixture of isomers) [Compound 130, 4-(4-((1R,5S,8r)-3-Benzyl-8-hydroxy-3-azabicyclo[3.2.1]octan-8-yl)phenyl)-7-(4-(trifluoromethyl)phenyl)-2-naphthoic acid] | 3.26 ± 0.01 |  |  |  |  |
| O=C(O)c1cc(-c2ccc(C3=CC4CCC(C3)N4)cc2)c2ccc(-c3ccc(C(F)(F)F)cc3)cc2c1 (stereo not shown) [Compound 128, 4-(4-(8-Azabicyclo[3.2.1]oct-2-en-3-yl)phenyl)-7-(4-(trifluoromethyl)phenyl)-2-naphthoic acid] | 2.33 ± 0.04 | 2.36 ± 0.01 ug/mL | 0.35 ± 0.04 ug/mL |  |  |
| N[C@H]1C[C@@H](C(=O)O)[C@H](c2ccc(-c3cc(C(=O)O)cc4cc(-c5ccc(C(F)(F)F)cc5)ccc34)cc2)C1 [Compound 139, 4-(4-((1R,2R,4R)-4-Amino-2-carboxycyclopentyl)phenyl)-7-(4-(trifluoromethyl)phenyl)-2-naphthoic acid] |  | 1.05 ± 0.20 ug/mL | 5.52 ± 0.21 ug/mL | 102 ± 25 nM | Log D7.4 ([1]; HPLC-based lipophilicity): −0.568 ± 0.038 |
| O=C(O)c1cc(-c2ccc([C@H]3C[C@H]4C[C@@H]3CN4)cc2)c2ccc(-c3ccc(C(F)(F)F)cc3)cc2c1 (racemic) [Compound 112, rac-4-(4-((1S,4S,5S)-2-Azabicyclo[2.2.1]heptan-5-yl)phenyl)-7-(4-(trifluoromethyl)phenyl)-2-naphthoic acid] | 1.95 ± 0.01 |  |  |  | solubility ([2]; pH 7.4, aqueous buffer): 0.47 ± 0.06 µg/mL (≈ 0.964 µM); IC50 (hP2Y14R): 5.9 ± 0.7 nM |
| O=C(O)c1cc(-c2ccc([C@@H]3CCN[C@H]4C[C@H]43)cc2)c2ccc(-c3ccc(C(F)(F)F)cc3)cc2c1 (racemic) [Compound 110, rac-4-(4-((1S,5R,6S)-2-Azabicyclo[4.1.0]heptan-5-yl)phenyl)-7-(4-(trifluoromethyl)phenyl)-2-naphthoic acid] | 2.59 ± 0.2 |  |  |  | solubility ([2]; pH 4, aqueous buffer): 0.1 ± 0.03 µg/mL (≈ 0.205 µM); solubility ([2]; pH 7.4, aqueous buffer): 0.51 ± 0.23 µg/mL (≈ 1.05 µM); IC50 (hP2Y14R): 42.4 ± 11.7 nM |
| O=C(O)c1cc(-c2ccc(C3CCNC3)cc2)c2ccc(-c3ccc(C(F)(F)F)cc3)cc2c1 (racemic) [Compound 105, 4-(4-(Pyrrolidin-3-yl)phenyl)-7-(4-(trifluoromethyl)phenyl)-2-naphthoic acid] | 1.89 ± 0.07 |  |  |  |  |
| O=C(O)c1cc(-c2ccc([C@@]34CCNC[C@@H]3C4)cc2)c2ccc(-c3ccc(C(F)(F)F)cc3)cc2c1 (racemic) [Compound 108, 4-(4-(3-Azabicyclo[4.1.0]heptan-6-yl)phenyl)-7-(4-(trifluoromethyl)phenyl)-2-naphthoic acid] | 2.44 ± 0.06 |  |  |  | solubility ([2]; pH 4, aqueous buffer): 1.32 ± 0.17 µg/mL (≈ 2.71 µM); solubility ([2]; pH 7.4, aqueous buffer): 0.17 ± 0.01 µg/mL (≈ 0.349 µM); IC50 (hP2Y14R): 45.5 ± 7.2 nM |
| O=C(O)c1cc(-c2ccc([C@@]3(O)C[C@H]4CC[C@@H]3CN4)cc2)c2ccc(-c3ccc(C(F)(F)F)cc3)cc2c1 [Compound 125b] |  | 1.55 ± 0.11 ug/mL | 0.74 ± 0.06 ug/mL |  |  |
| O=C(O)c1cc(-c2ccc([C@H]3C[C@H]4C[C@@H]3C(=O)N4)cc2)c2ccc(-c3ccc(C(F)(F)F)cc3)cc2c1 [Compound 119, 4-(4-((1S,4S,5S)-3-Oxo-2-azabicyclo[2.2.1]heptan-5-yl)phenyl)-7-(4-(trifluoromethyl)phenyl)-2-naphthoic acid] |  |  |  | 101 ± 70 nM |  |
| O=C(O)c1cc(-c2ccc(C3=C[C@H]4CNC[C@@H]4C3)cc2)c2ccc(-c3ccc(C(F)(F)F)cc3)cc2c1 (racemic) [Compound 412, rac-4-(4-((3aR,6aR)-1,2,3,3a,4,6a-Hexahydrocyclopenta[c]pyrrol-5-yl)phenyl)-7-(4-(trifluoromethyl)phenyl)-2-naphthoic acid] |  |  |  |  | IC50 (hP2Y14R; read-out: IC50): 16.6 ± 3.2 nM |
